Experiments:
Assay in all cases: area over the GR curve, 72 h; higher = more effect;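 also: Dye Drop or Deep Dye Drop imaging of viable cells in 384-well plates (Hoechst nuclei, LIVE/DEAD dye), nine half-log doses, GR normalized to DMSO controls and time-zero plates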
[1] = system: PDX1328
[2] = system: HCC1187
[3] = system: HCC1569
[4] = system: HCC1143
[5] = system: SUM149
[6] = system: MGH312
[7] = system: BT474
[8] = system: HTERT_HME1
[9] = system: SUM190PT
[10] = system: HCC38
[11] = system: MDAMB468
[12] = system: SUM1315
[13] = system: MDAMB415

Row | SMILES | area over the GR curve [1] | area over the GR curve [2] | area over the GR curve [3] | area over the GR curve [4] | area over the GR curve [5] | area over the GR curve [6] | area over the GR curve [7] | area over the GR curve [8] | area over the GR curve [9] | area over the GR curve [10] | area over the GR curve [11] | area over the GR curve [12] | area over the GR curve [13] | area over the GR curve ([1]; main component drawn) | area over the GR curve ([4]; main component drawn) | area over the GR curve ([5]; main component drawn) | area over the GR curve ([8]; main component drawn) | area over the GR curve ([10]; main component drawn) | area over the GR curve ([11]; main component drawn) | area over the GR curve ([12]; main component drawn)
1 | C[C@@H]1COCCN1c1cc(C2([S@](C)(=N)=O)CC2)nc(-c2cc[nH]c3nccc2-3)n1 [AZD6738] (max 10 µM) | 0.172 GR | 0.249 GR | 0.053 GR | 0.0282 GR | 0.117 GR | -0.22 GR | 0.0277 GR | -0.0027 GR | 0.124 GR | 0.247 GR | 0.0381 GR | 0.0543 GR | 0.0148 GR | – | – | – | – | – | – | –
2 | NC(=O)Nc1cc(-c2cccc(F)c2)sc1C(=O)N[C@H]1CCCNC1 [AZD7762] (max 10 µM) | 0.828 GR | 0.776 GR | 0.772 GR | 0.621 GR | 0.657 GR | 0.469 GR | 0.0464 GR | 0.435 GR | 0.57 GR | 0.916 GR | 0.487 GR | 0.68 GR | 0.398 GR | – | – | – | – | – | – | –
3 | Cc1nc(NC(=O)N2CCC[C@H]2C(N)=O)sc1-c1ccnc(C(C)(C)C(F)(F)F)c1 [Alpelisib/BYL719] (max 10 µM) | 0.241 GR | 0.0302 GR | 0.0913 GR | 0.174 GR | 0.0367 GR | -0.015 GR | 0.468 GR | 0.112 GR | -0.103 GR | 0.0391 GR | 0.0301 GR | 0.116 GR | 0.0453 GR | – | – | – | – | – | – | –
4 | CN(C)C/C=C/C(=O)Nc1ccc(O[C@@H]2CCC[C@@H](Nc3ncc(Cl)c(-c4c[nH]c5ccccc45)n3)C2)cc1 [BSJ-01-175] (max 10 µM) | 0.898 GR | 1.08 GR | 0.907 GR | 0.684 GR | 0.747 GR | 1.47 GR | 0.826 GR | 0.955 GR | 1.16 GR | 0.603 GR | 0.892 GR | 0.509 GR | 0.676 GR | – | – | – | – | – | – | –
5 | CC(=O)c1c(C)c2cnc(Nc3ccc(N4CCN(CCOCCOCCOCCNC(=O)COc5cccc6c5C(=O)N(C5CCC(=O)NC5=O)C6=O)CC4)cn3)nc2n(C2CCCC2)c1=O (centres undefined) [BSJ-03-123] (max 10 µM) | 0.31 GR | -0.0405 GR | 0.183 GR | 0.265 GR | 0.293 GR | 0.129 GR | 0.464 GR | 0.422 GR | 0.568 GR | 0.566 GR | 0.265 GR | 0.312 GR | 0.332 GR | – | – | – | – | – | – | –
6 | CC(C)Nc1cc(-c2c[nH]c(C(=O)N[C@H](CO)c3cccc(Cl)c3)c2)c(Cl)cn1 [BVD523] (max 10 µM) | 0.102 GR | -0.297 GR | -0.026 GR | 0.27 GR | 0.233 GR | -0.0209 GR | -0.0171 GR | 0.443 GR | 0.218 GR | 0.237 GR | 0.267 GR | 0.0786 GR | 0.121 GR | – | – | – | – | – | – | –
7 | Cc1c(N)nc([C@H](CC(N)=O)NC[C@H](N)C(N)=O)nc1C(=O)N[C@H](C(=O)N[C@H](C)[C@@H](O)[C@H](C)C(=O)N[C@H](C(=O)NCCc1nc(-c2nc(C(=O)NCCC[S+](C)C)cs2)cs1)[C@@H](C)O)[C@@H](OC1OC(CO)C(O)C(O)C1OC1OC(CO)C(O)C(OC(N)=O)C1O)c1cnc[nH]1 (some centres undefined) [Bleomycin] (max 10 µM) | – | – | – | – | – | – | – | – | – | – | – | – | – | 0.199 GR | 0.658 GR | 0.683 GR | 0.48 GR | 0.485 GR | 0.325 GR | 0.41 GR
8 | Nc1cc(C(F)(F)F)c(-c2cc(N3CCOCC3)nc(N3CCOCC3)n2)cn1 [Buparlisib/NVP-BKM120] (max 10 µM) | 0.395 GR | 0.425 GR | 0.298 GR | 0.392 GR | 0.248 GR | 0.506 GR | 0.53 GR | 0.243 GR | 0.253 GR | 0.254 GR | 0.357 GR | 0.438 GR | 0.35 GR | – | – | – | – | – | – | –
9 | COc1cc2nccc(Oc3ccc(NC(=O)C4(C(=O)Nc5ccc(F)cc5)CC4)cc3)c2cc1OC [Cabozantinib] (max 10 µM) | 0.0918 GR | 0.39 GR | 0.0157 GR | 0.102 GR | 0.0344 GR | -0.0125 GR | -0.109 GR | 0.0866 GR | 0.138 GR | 0.0283 GR | 0.0415 GR | 0.105 GR | -0.0499 GR | – | – | – | – | – | – | –
10 | COc1cc2c(Oc3ccc4[nH]c(C)cc4c3F)ncnc2cc1OCCCN1CCCC1 [Cediranib/AZD2171] (max 10 µM) | 0.162 GR | 0.195 GR | -0.0292 GR | 0.165 GR | 0.0456 GR | -0.0345 GR | -0.139 GR | -0.0207 GR | -0.0464 GR | 0.202 GR | 0.165 GR | 0.243 GR | 0.246 GR | – | – | – | – | – | – | –
11 | Cc1cc(Nc2ncc(Cl)c(Nc3ccccc3S(=O)(=O)C(C)C)n2)c(OC(C)C)cc1C1CCNCC1 [Ceritinib/LDK378] (max 10 µM) | 0.416 GR | 0.168 GR | 0.124 GR | 0.285 GR | 0.249 GR | 0.001 GR | -0.229 GR | 0.286 GR | 0.242 GR | 0.208 GR | 0.405 GR | 0.413 GR | 0.085 GR | – | – | – | – | – | – | –
12 | N.N.[Cl][Pt][Cl] [Cisplatin] (max 10 µM) | 0.287 GR | – | – | 0.303 GR | 0.355 GR | – | – | 0.297 GR | – | 0.257 GR | 0.287 GR | 0.296 GR | – | – | – | – | – | – | – | –
13 | Cc1nc(Nc2ncc(C(=O)Nc3c(C)cccc3Cl)s2)cc(N2CCN(CCO)CC2)n1 [Dasatinib] (max 10 µM) | 0.819 GR | 0.618 GR | 0.483 GR | 0.447 GR | 0.52 GR | 0.908 GR | 0.695 GR | 0.415 GR | 0.32 GR | 0.145 GR | 0.143 GR | 0.74 GR | 0.272 GR | – | – | – | – | – | – | –
14 | COc1cccc2c1C(=O)c1c(O)c3c(c(O)c1C2=O)C[C@@](O)(C(=O)CO)C[C@@H]3O[C@H]1C[C@H](N)[C@H](O)[C@H](C)O1 [Doxorubicin] (max 3.162 µM) | 0.637 GR | 1.08 GR | 0.492 GR | 0.718 GR | 0.754 GR | 1.07 GR | 0.578 GR | 0.836 GR | 0.403 GR | 0.78 GR | 0.912 GR | 0.513 GR | 0.834 GR | – | – | – | – | – | – | –
15 | COc1cc([C@@H]2c3cc4c(cc3[C@@H](O[C@@H]3O[C@@H]5CO[C@@H](C)O[C@H]5[C@H](O)[C@H]3O)[C@H]3COC(=O)[C@H]23)OCO4)cc(OC)c1O [Etoposide] (max 10 µM) | 0.35 GR | – | – | 0.384 GR | 0.527 GR | – | – | 0.542 GR | – | 0.449 GR | 0.429 GR | 0.381 GR | – | – | – | – | – | – | – | –
16 | CC[C@@]1(O)C(=O)OCc2c1cc1n(c2=O)Cc2cc3c(CN(C)C)c(O)ccc3nc2-1 [Topotecan] (max 10 µM) | 1.07 GR | – | – | 0.904 GR | 0.941 GR | – | – | 0.873 GR | – | 1.07 GR | 1.07 GR | 0.769 GR | – | – | – | – | – | – | – | –

Source: the supplement of paper PMC9663587
